Data taken from patent US10287305B2, “Substituted piperidine compound and use thereof” (Takeda Pharmaceutical Company Limited, priority 2016, dated 2019).

Biological target: human orexin type 2 receptor (hOX2R) (Homo sapiens (Human), UniProt O43614)
Test: Measurement of orexin type 2 receptor agonist activity (Experimental Example 2-1, FLIPR TETRA, intracellular Ca2+)
Type: cell-based
Details: CHO dhfr- cells expressing hOX2R, FLIPR TETRA, Fluo-4AM; for Emax: read-out: Emax (%)

Chain of human orexin type 2 receptor (hOX2R) (O43614 whole entry): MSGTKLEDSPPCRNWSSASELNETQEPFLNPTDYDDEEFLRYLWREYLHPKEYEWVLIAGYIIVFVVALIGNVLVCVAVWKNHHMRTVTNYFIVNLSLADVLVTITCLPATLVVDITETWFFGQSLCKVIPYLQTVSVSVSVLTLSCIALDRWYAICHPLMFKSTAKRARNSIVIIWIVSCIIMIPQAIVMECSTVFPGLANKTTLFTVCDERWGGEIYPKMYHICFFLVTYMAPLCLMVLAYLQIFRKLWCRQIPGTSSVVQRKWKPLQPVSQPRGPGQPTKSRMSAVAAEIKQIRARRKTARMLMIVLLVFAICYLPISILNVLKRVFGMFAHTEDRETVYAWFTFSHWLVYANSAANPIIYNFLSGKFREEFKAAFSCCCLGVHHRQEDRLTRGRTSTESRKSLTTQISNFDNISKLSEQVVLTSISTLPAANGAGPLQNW

| EC50 [nM] | Emax [%] | SMILES |
| --- | --- | --- |
| 350 | 95 | CC(=O)N(C)CC(=O)N1CCC[C@H](NS(C)(=O)=O)[C@@H]1CO[C@H]1CC[C@@H](c2ccccc2)CC1 (relative stereo) [Example 156, N-methyl-N-(2-(cis-3-((methylsulfonyl)amino)-2-(((cis-4-phenylcyclohexyl)oxy)methyl)piperidin-1-yl)-2-oxoethyl)acetamide] |
| 140 | 91 | CS(=O)(=O)N[C@H]1CCCN(C(=O)Cc2nccs2)[C@H]1CO[C@H]1CC[C@@H](c2ccccc2)CC1 (relative stereo) [Example 157, N-(cis-2-(((cis-4-phenylcyclohexyl)oxy)methyl)-1-(1,3-thiazol-2-ylacetyl)piperidin-3-yl)methanesulfonamide] |
| 1600 | 83 | CC(=O)N1CCC[C@H](NS(C)(=O)=O)[C@@H]1CO[C@H]1CC[C@@H](c2ccn(C)n2)CC1 (relative stereo) [Example 158, N-(cis-1-acetyl-2-(((cis-4-(1-methyl-1H-pyrazol-3-yl)cyclohexyl)oxy)methyl)piperidin-3-yl)methanesulfonamide] |
| 140 | 96 | CCNC(=O)N1CCC[C@H](NS(C)(=O)=O)[C@@H]1CO[C@H]1CC[C@@H](c2ccn(C)n2)CC1 (relative stereo) [Example 159, cis-N-ethyl-2-(((cis-4-(1-methyl-1H-pyrazol-3-yl)cyclohexyl)oxy)methyl)-3-((methylsulfonyl)amino)piperidine-1-carboxamide] |
| 3800 | 80 | COC(=O)N1CCC[C@H](NS(C)(=O)=O)[C@@H]1COC1CCN(c2ccccc2C(F)(F)F)CC1 (relative stereo) [Example 165, methyl cis-3-((methylsulfonyl)amino)-2-(((1-(2-(trifluoromethyl)phenyl)piperidin-4-yl)oxy)methyl)piperidine-1-carboxylate] |
| 2400 | 83 | COC(=O)N1CCC[C@H](NS(C)(=O)=O)[C@@H]1COC1CCN(c2ccccc2Cl)CC1 (relative stereo) [Example 167, methyl cis-2-(((1-(2-chlorophenyl)piperidin-4-yl)oxy)methyl)-3-((methylsulfonyl)amino)piperidine-1-carboxylate] |
| 45 | 98 | CS(=O)(=O)N[C@H]1CCCN(C(=O)C2(O)CC2)[C@H]1CO[C@H]1CC[C@@H](c2ccccc2)CC1 (relative stereo) [Example 176, N-(cis-1-((1-hydroxycyclopropyl)carbonyl)-2-(((cis-4-phenylcyclohexyl)oxy)methyl)piperidin-3-yl)methanesulfonamide] |
| 190 | 96 | CC(=O)C(=O)N1CCC[C@H](NS(C)(=O)=O)[C@@H]1CO[C@H]1CC[C@@H](c2ccccc2)CC1 (relative stereo) [Example 177, N-(cis-2-(((cis-4-phenylcyclohexyl)oxy)methyl)-1-pyruvoylpiperidin-3-yl)methanesulfonamide] |
| 0.31 | 100 | CS(=O)(=O)N[C@H]1CCCN(C(=O)NCC#N)[C@H]1CO[C@H]1CC[C@@H](c2ccccc2)CC1 (relative stereo) [Example 179, cis-N-(cyanomethyl)-3-((methylsulfonyl)amino)-2-(((cis-4-phenylcyclohexyl)oxy)methyl)piperidine-1-carboxamide] |
| 3300 | 86 | COC(=O)N1CCC[C@H](NS(C)(=O)=O)[C@@H]1COC1CCN(c2c(Cl)cccc2Cl)CC1 (relative stereo) [Example 186, methyl cis-2-(((1-(2,6-dichlorophenyl)piperidin-4-yl)oxy)methyl)-3-((methylsulfonyl)amino)piperidine-1-carboxylate] |
| 78 | 88 | CC(C)(O)C(=O)N1CCC[C@H](NS(C)(=O)=O)[C@@H]1CO[C@H]1CC[C@@H](c2ccccc2)CC1 (relative stereo) [Example 189, N-(cis-1-(2-hydroxy-2-methylpropanoyl)-2-(((cis-4-phenylcyclohexyl)oxy)methyl)piperidin-3-yl)methanesulfonamide] |
| 150 | 108 | CCNC(=O)N1CCC[C@H](NS(C)(=O)=O)[C@@H]1CO[C@H]1C[C@@H](c2ccc(C)cc2)C1 (relative stereo) [Example 192, cis-N-ethyl-2-(((cis-3-(4-methylphenyl)cyclobutyl)oxy)methyl)-3-((methylsulfonyl)amino)piperidine-1-carboxamide] |
| 300 | 88 | CS(=O)(=O)N[C@H]1CCCN(C(=O)C2CC2)[C@H]1CO[C@H]1C[C@@H](c2ccccc2)C1 (relative stereo) [Example 193, N-(cis-1-(cyclopropylcarbonyl)-2-(((cis-3-phenylcyclobutyl)oxy)methyl)piperidin-3-yl)methanesulfonamide] |
| – | 81 | COC(=O)N1CCC[C@H](NS(C)(=O)=O)[C@@H]1CO[C@H]1C[C@@H](c2ccccc2)C1 (relative stereo) [Example 194, methyl cis-3-((methylsulfonyl)amino)-2-(((cis-3-phenylcyclobutyl)oxy)methyl)piperidine-1-carboxylate] |
| 250 | 102 | CCNC(=O)N1CCC[C@H](NS(C)(=O)=O)[C@@H]1COC1CCN(c2ccccc2F)CC1 (relative stereo) [Example 195, cis-N-ethyl-2-(((1-(2-fluorophenyl)piperidin-4-yl)oxy)methyl)-3-((methylsulfonyl)amino)piperidine-1-carboxamide] |
| 30 | 104 | CS(=O)(=O)N[C@H]1CCCN(C(=O)C2CC2)[C@H]1COC1CCN(c2ncccn2)CC1 (relative stereo) [Example 196, N-(cis-1-(cyclopropylcarbonyl)-2-(((1-(pyrimidin-2-yl)piperidin-4-yl)oxy)methyl)piperidin-3-yl)methanesulfonamide] |
| – | 90 | CS(=O)(=O)N[C@H]1CCCN(C(=O)C2CC2)[C@H]1CO[C@H]1CC[C@@H](C)CC1 (relative stereo) [Example 197, N-(cis-1-(cyclopropylcarbonyl)-2-(((cis-4-methylcyclohexyl)oxy)methyl)piperidin-3-yl)methanesulfonamide] |
| 56 | 92 | CC(=O)N1CCC[C@H](NS(C)(=O)=O)[C@@H]1CO[C@H]1CC[C@@H](c2cc(F)ccc2F)CC1 (relative stereo) [Example 198, N-(cis-1-acetyl-2-(((cis-4-(2,5-difluorophenyl)cyclohexyl)oxy)methyl)piperidin-3-yl)methanesulfonamide] |
| 2000 | 92 | CS(=O)(=O)N[C@H]1CCCN(C(=O)C2CC2)[C@H]1COC1CCN(c2ccccc2Cl)CC1 (relative stereo) [Example 201, N-(cis-2-(((1-(2-chlorophenyl)piperidin-4-yl)oxy)methyl)-1-(cyclopropylcarbonyl)piperidin-3-yl)methanesulfonamide] |
| 19 | 97 | CS(=O)(=O)N[C@H]1CCCN(C(=O)C2CC2)[C@H]1COC1CCN(c2ncc(F)cn2)CC1 (relative stereo) [Example 202, N-(cis-1-(cyclopropylcarbonyl)-2-(((1-(5-fluoropyrimidin-2-yl)piperidin-4-yl)oxy)methyl)piperidin-3-yl)methanesulfonamide] |
| 710 | 102 | CC(=O)N1CCC[C@H](NS(C)(=O)=O)[C@@H]1CO[C@H]1CC[C@@H](c2cccc(C(F)(F)F)c2)CC1 (relative stereo) [Example 204, N-(cis-1-acetyl-2-(((cis-4-(3-(trifluoromethyl)phenyl)cyclohexyl)oxy)methyl)piperidin-3-yl)methanesulfonamide] |
| 26 | 110 | CCNC(=O)N1CCC[C@H](NS(C)(=O)=O)[C@@H]1CO[C@H]1CC[C@@H](c2cccc(C(F)(F)F)c2)CC1 (relative stereo) [Example 207, cis-N-ethyl-3-((methylsulfonyl)amino)-2-(((cis-4-(3-(trifluoromethyl)phenyl)cyclohexyl)oxy)methyl)piperidine-1-carboxamide] |
| 940 | 93 | CS(=O)(=O)N[C@H]1CCCN(C(=O)C2CCCCC2)[C@H]1COC1CCN(c2ncccn2)CC1 (relative stereo) [Example 208, N-(cis-1-(cyclohexylcarbonyl)-2-(((1-(pyrimidin-2-yl)piperidin-4-yl)oxy)methyl)piperidin-3-yl)methanesulfonamide] |
| 1900 | 89 | CS(=O)(=O)N[C@H]1CCCN(C(=O)C2CC2)[C@H]1COC1CCN(c2cccc(F)c2Cl)CC1 (relative stereo) [Example 209, N-(cis-2-(((1-(2-chloro-3-fluorophenyl)piperidin-4-yl)oxy)methyl)-1-(cyclopropylcarbonyl)piperidin-3-yl)methanesulfonamide] |
| 3600 | 86 | CC1(C)CCC(C(=O)N2CCC[C@H](NS(C)(=O)=O)[C@@H]2COC2CCN(c3ncccn3)CC2)CC1 (relative stereo) [Example 210, N-(cis-1-((4,4-dimethylcyclohexyl)carbonyl)-2-(((1-(pyrimidin-2-yl)piperidin-4-yl)oxy)methyl)piperidin-3-yl)methanesulfonamide] |
| 1100 | 94 | CS(=O)(=O)N[C@H]1CCCN(C(=O)C2CC2)[C@H]1COC1CCN(c2ncccn2)CC1(F)F (relative stereo) [Example 211, N-(cis-1-(cyclopropylcarbonyl)-2-(((3,3-difluoro-1-(pyrimidin-2-yl)piperidin-4-yl)oxy)methyl)piperidin-3-yl)methanesulfonamide] |
| 2200 | 89 | CS(=O)(=O)N[C@H]1CCCN(C(=O)C2CC2)[C@H]1COC1CCN(c2cc(F)ccc2Cl)CC1 (relative stereo) [Example 212, N-(cis-2-(((1-(2-chloro-5-fluorophenyl)piperidin-4-yl)oxy)methyl)-1-(cyclopropylcarbonyl)piperidin-3-yl)methanesulfonamide] |
